Experimental data from PubChem BioAssay AID248 (DTP/NCI, 2004).
“And” between values parts separate entries of the source, which are not always exact repeats. Identical values can stand only once. Toxic doses and inconclusive results are not listed. Rule as the data show it: active = T/C of 150% or more; inactive = T/C below 125%.

System: L1210 leukemia ip in BDF1 mice, survival T/C
Assay: NCI In Vivo Anticancer Drug Screen. Data for tumor model L1210 Leukemia (intraperitoneal) in B6D2F1 (BDF1) mice
Conditions: higher = longer survival
Method in brief: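 Transplantable tumor model; survival measured in treated vs vehicle control mice. Value = treated/control.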

[1] = endpoint: mean survival time, dose: 100.0 mg/kg/injection, schedule: Q04DX003 (ip), vehicle: Klucel (hydroxypropylcellulose) (HPC)
[2] = endpoint: mean survival time, dose: 200.0 mg/kg/injection, schedule: Q04DX003 (ip), vehicle: Klucel (hydroxypropylcellulose) (HPC)

Measured: T/C

CC(=O)C=O
inactive: endpoint: mean survival time, dose: 12.5 mg/kg/injection, schedule: Q01DX009 (ip), vehicle: saline 98 % of control | endpoint: mean survival time, dose: 20.5 mg/kg/injection, schedule: Q01DX006 (ip), vehicle: saline 100 % of control | endpoint: mean survival time, dose: 20.5 mg/kg/injection, schedule: Q ##X009 (ip), vehicle: saline 102 % of control | endpoint: mean survival time, dose: 20.5 mg/kg/injection, schedule: Q## X Z (ip), vehicle: saline 101 % of control | endpoint: mean survival time, dose: 25.0 mg/kg/injection, schedule: Q01DX009 (ip), vehicle: saline 88 % of control | endpoint: mean survival time, dose: 29.5 mg/kg/injection, schedule: Q01DX006 (ip), vehicle: saline 105 % of control | endpoint: mean survival time, dose: 29.5 mg/kg/injection, schedule: Q ##X009 (ip), vehicle: saline 98 % of control | endpoint: mean survival time, dose: 29.5 mg/kg/injection, schedule: Q## X Z (ip), vehicle: saline 97 % of control | endpoint: mean survival time, dose: 41.0 mg/kg/injection, schedule: Q03DX002 (ip), vehicle: saline 107 % of control | endpoint: mean survival time, dose: 42.0 mg/kg/injection, schedule: Q01DX006 (ip), vehicle: saline 96 % of control | endpoint: mean survival time, dose: 42.0 mg/kg/injection, schedule: Q ##X009 (ip), vehicle: saline 110 % of control | endpoint: mean survival time, dose: 42.0 mg/kg/injection, schedule: Q## X Z (ip), vehicle: saline 110 % of control | endpoint: mean survival time, dose: 50.0 mg/kg/injection, schedule: Q01DX009 (ip), vehicle: saline 93 % of control | endpoint: mean survival time, dose: 50.0 mg/kg/injection, schedule: Q01DX009 (ip), vehicle: water 110 % of control | endpoint: mean survival time, dose: 60.0 mg/kg/injection, schedule: Q01DX006 (ip), vehicle: saline 106 % of control and 107 % of control | endpoint: mean survival time, dose: 60.0 mg/kg/injection, schedule: Q ##X009 (ip), vehicle: saline 91 % of control | endpoint: mean survival time, dose: 60.0 mg/kg/injection, schedule: Q## X Z (ip), vehicle: saline 91 % of control | endpoint: mean survival time, dose: 71.0 mg/kg/injection, schedule: Q03DX002 (ip), vehicle: saline 118 % of control | endpoint: mean survival time, dose: 75.0 mg/kg/injection, schedule: Q01DX009 (ip), vehicle: water 113 % of control | endpoint: mean survival time, dose: 93.0 mg/kg/injection, schedule: Q01DX001 (ip), vehicle: saline 113 % of control | endpoint: mean survival time, dose: 100.0 mg/kg/injection, schedule: Q01DX009 (ip), vehicle: saline 97 % of control | endpoint: mean survival time, dose: 100.0 mg/kg/injection, schedule: Q01DX009 (ip), vehicle: water 110 % of control | endpoint: mean survival time, dose: 107.0 mg/kg/injection, schedule: Q03DX002 (ip), vehicle: saline 116 % of control | endpoint: mean survival time, dose: 127.0 mg/kg/injection, schedule: Q01DX001 (ip), vehicle: saline 123 % of control | endpoint: mean survival time, dose: 150.0 mg/kg/injection, schedule: Q01DX009 (ip), vehicle: water 103 % of control | endpoint: mean survival time, dose: 160.0 mg/kg/injection, schedule: Q03DX002 (ip), vehicle: saline 111 % of control | endpoint: mean survival time, dose: 200.0 mg/kg/injection, schedule: Q01DX001 (ip), vehicle: saline 97 % of control | endpoint: mean survival time, dose: 200.0 mg/kg/injection, schedule: Q01DX009 (ip), vehicle: saline 104 % of control | endpoint: mean survival time, dose: 200.0 mg/kg/injection, schedule: Q01DX009 (ip), vehicle: water 91 % of control | endpoint: mean survival time, dose: 400.0 mg/kg/injection, schedule: Q01DX009 (ip), vehicle: saline 111 % of control | endpoint: median survival time, dose: 35.0 mg/kg/injection, schedule: Q01DX005 (ip), vehicle: other 104 % of control | endpoint: median survival time, dose: 35.0 mg/kg/injection, schedule: Q01DX005 (ip), vehicle: saline sonified 105 % of control | endpoint: median survival time, dose: 44.0 mg/kg/injection, schedule: Q01DX005 (ip), vehicle: other 104 % of control | endpoint: median survival time, dose: 44.0 mg/kg/injection, schedule: Q01DX005 (ip), vehicle: saline sonified 105 % of control | endpoint: median survival time, dose: 55.0 mg/kg/injection, schedule: Q01DX005 (ip), vehicle: other 106 % of control | endpoint: median survival time, dose: 55.0 mg/kg/injection, schedule: Q01DX005 (ip), vehicle: saline sonified 111 % of control | endpoint: median survival time, dose: 69.0 mg/kg/injection, schedule: Q01DX005 (ip), vehicle: other 107 % of control | endpoint: median survival time, dose: 69.0 mg/kg/injection, schedule: Q01DX005 (ip), vehicle: saline sonified 111 % of control | endpoint: median survival time, dose: 86.0 mg/kg/injection, schedule: Q01DX005 (ip), vehicle: other 110 % of control | endpoint: median survival time, dose: 86.0 mg/kg/injection, schedule: Q01DX005 (ip), vehicle: saline sonified 111 % of control | endpoint: median survival time, dose: 175.0 mg/kg/injection, schedule: Q01DX001 (ip), vehicle: other 101 % of control | endpoint: median survival time, dose: 175.0 mg/kg/injection, schedule: Q01DX001 (ip), vehicle: saline sonified 100 % of control | endpoint: median survival time, dose: 194.0 mg/kg/injection, schedule: Q01DX001 (ip), vehicle: other 101 % of control | endpoint: median survival time, dose: 194.0 mg/kg/injection, schedule: Q01DX001 (ip), vehicle: saline sonified 100 % of control | endpoint: median survival time, dose: 216.0 mg/kg/injection, schedule: Q01DX001 (ip), vehicle: other 98 % of control | endpoint: median survival time, dose: 216.0 mg/kg/injection, schedule: Q01DX001 (ip), vehicle: saline sonified 100 % of control | endpoint: median survival time, dose: 240.0 mg/kg/injection, schedule: Q01DX001 (ip), vehicle: other 118 % of control | endpoint: median survival time, dose: 240.0 mg/kg/injection, schedule: Q01DX001 (ip), vehicle: saline sonified 116 % of control | endpoint: median survival time, dose: 268.0 mg/kg/injection, schedule: Q01DX001 (ip), vehicle: other 107 % of control | endpoint: median survival time, dose: 268.0 mg/kg/injection, schedule: Q01DX001 (ip), vehicle: saline sonified 105 % of control | endpoint: median survival time, dose: 298.0 mg/kg/injection, schedule: Q01DX001 (ip), vehicle: other 116 % of control | endpoint: median survival time, dose: 298.0 mg/kg/injection, schedule: Q01DX001 (ip), vehicle: saline sonified 116 % of control

CC1(C)C(OC=O)C(C)(C)C1OC=O (stereo unspecified)
inactive: endpoint: mean survival time, dose: 25.0 mg/kg/injection, schedule: Q01DX009 (ip), vehicle: Klucel (hydroxypropylcellulose) (HPC) 100 % of control | endpoint: mean survival time, dose: 50.0 mg/kg/injection, schedule: Q01DX009 (ip), vehicle: Klucel (hydroxypropylcellulose) (HPC) 93 % of control | endpoint: mean survival time, dose: 100.0 mg/kg/injection, schedule: Q01DX009 (ip), vehicle: Klucel (hydroxypropylcellulose) (HPC) 94 % of control | [1] 96 % of control | [2] 98 % of control

CSc1ccc(NC(=O)Nc2ccc(S(N)(=O)=O)cc2)cc1
inactive: endpoint: mean survival time, dose: 100.0 mg/kg/injection, schedule: Q01DX009 (ip), vehicle: saline with Tween-80 106 % of control | [1] 104 % of control | endpoint: mean survival time, dose: 200.0 mg/kg/injection, schedule: Q01DX009 (ip), vehicle: saline with Tween-80 95 % of control | [2] 100 % of control | endpoint: mean survival time, dose: 400.0 mg/kg/injection, schedule: Q01DX009 (ip), vehicle: saline with Tween-80 102 % of control | endpoint: mean survival time, dose: 400.0 mg/kg/injection, schedule: Q04DX003 (ip), vehicle: Klucel (hydroxypropylcellulose) (HPC) 98 % of control

C[Si](C)(C)Cc1ccccc1F
inactive: endpoint: mean survival time, dose: 25.6 mg/kg/injection, schedule: Q04DX002 (ip), vehicle: saline with Tween-80 101 % of control | endpoint: mean survival time, dose: 64.0 mg/kg/injection, schedule: Q04DX002 (ip), vehicle: saline with Tween-80 93 % of control | endpoint: mean survival time, dose: 160.0 mg/kg/injection, schedule: Q04DX002 (ip), vehicle: saline with Tween-80 104 % of control | endpoint: mean survival time, dose: 400.0 mg/kg/injection, schedule: Q04DX002 (ip), vehicle: saline with Tween-80 90 % of control

CCCCOC(=O)CC1CCCN1C (stereo unspecified)
inactive: endpoint: mean survival time, dose: 100.0 mg/kg/injection, schedule: Q04DX003 (ip), vehicle: saline 110 % of control | endpoint: mean survival time, dose: 200.0 mg/kg/injection, schedule: Q04DX003 (ip), vehicle: saline 101 % of control

NC1=NC(c2ccccc2)N(c2ccccc2Cl)C(N)=N1 (stereo unspecified)
inactive: endpoint: mean survival time, dose: 75.0 mg/kg/injection, schedule: Q01DX001 (ip), vehicle: Klucel (hydroxypropylcellulose) (HPC) 97 % of control | endpoint: mean survival time, dose: 150.0 mg/kg/injection, schedule: Q01DX001 (ip), vehicle: Klucel (hydroxypropylcellulose) (HPC) 94 % of control
